Measurements: patent US7691907B2, “Methods and composition based on discovery of metabolism of nitroglycerin” (priority 2002, dated 2010)
“Also recorded” adds a separate entry of the source. Like-named read-outs stand apart in the source and are kept apart here.

What was measured:
patient = settings: human, in vivo
[1] = biological target: T1, mtALDH isolated from mouse macrophage RAW 264.7 (Mus musculus, UniProt P47738); assay type: biochemical
T1 construct: Mouse macrophage RAW 264.7 cells were homogenized in a 30 mM phosphate buffer; endogenous in cells; host or cells: mouse macrophage RAW 264.7 cells (endogenous enzyme purified over DEAE-cellulose, Q-sepharose, Butyl-Sepharose and hydroxyapatite)
T1 sequence (P47738 20-519): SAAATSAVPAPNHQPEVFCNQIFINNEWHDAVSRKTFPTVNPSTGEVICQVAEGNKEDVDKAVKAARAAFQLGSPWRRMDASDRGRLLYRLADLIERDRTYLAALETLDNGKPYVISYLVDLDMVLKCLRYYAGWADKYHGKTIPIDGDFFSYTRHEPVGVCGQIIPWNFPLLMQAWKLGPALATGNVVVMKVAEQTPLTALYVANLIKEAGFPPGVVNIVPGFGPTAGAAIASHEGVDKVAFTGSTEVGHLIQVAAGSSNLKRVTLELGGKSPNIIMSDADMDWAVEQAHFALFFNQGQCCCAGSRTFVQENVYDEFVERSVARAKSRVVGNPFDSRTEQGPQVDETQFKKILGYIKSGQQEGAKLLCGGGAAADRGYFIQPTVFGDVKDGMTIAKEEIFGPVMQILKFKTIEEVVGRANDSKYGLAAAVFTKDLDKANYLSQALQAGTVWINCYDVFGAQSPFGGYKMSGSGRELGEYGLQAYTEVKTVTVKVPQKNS

[2] = biological target: T2, mouse mitochondria aldehyde dehydrogenase (mtALDH) purified from RAW264.7 cells (Mus musculus, UniProt P47738); test: GTN reductase activity of purified enzyme (1,2-GDN formation from [14C]GTN, TLC-LSS); assay type: biochemical; settings: for restoration of catalytic activity lost upon removal of DTT by dialysis: purified enzyme after dialysis
T2 construct: Mouse macrophage RAW 264.7 cells were homogenized in a 30 mM phosphate buffer; endogenous in cells; host or cells: mouse macrophage RAW 264.7 cells (endogenous enzyme purified over DEAE-cellulose, Q-sepharose, Butyl-Sepharose and hydroxyapatite)
T2 sequence (P47738 20-519): T1 sequence (P47738 20-519)

[3] = cited from earlier work
[4] = test system: mitochondria isolated from RAW 264.7 cells; test: 1,2-GDN generation from GTN by mitochondria isolated from RAW 264.7 cells; assay type: biochemical, mouse
Method: During protein purification, the assay mixtures (1 ml samples) contained 100 mM KPi, pH7.5, 0.5 mM EDTA, 1 mM NADH, 1 mM NADPH, 0.1 or 1 μM [^14C]GTN and protein sample from column fractions. After incubation at 37° C. for 10 to 30 minutes, the reaction was stopped (by adding dry ice) and GTN and its metabolites were extracted by 3×4 ml ether, the ether phase was combined and the solvent was evaporated by a stream of nitrogen. The final volume was controlled to less than 100 μl in ethanol for subsequent thin layer chromatography (TLC) separation and liquid scintillation spectrometry counting, i.e., (TLC-LSS), to determine amount of [^14C]1,2-GDN, to select samples with enzymatic activity (i.e., 1,2-GDN producing activity).
At the end of the procedure, the protein had been purified to near homogeneity (90 fold), with a 14.4% overall yield; its estimated molecular weight on SDS gel is about 53 kDa. N-terminal sequence of 30 amino acid residues was obtained by Edman degradation and matched exactly with mouse mitochondria aldehyde dehydrogenase.

[5] = test system: organic nitrate ester reductase activity (mtALDH) in aorta rings; test: 1,2-GDN formation from GTN in aorta rings; assay type: cell-based, New Zealand white rabbits; settings: for activity at 1000 µM: Oryctolagus cuniculus, read-out: 1,2-GDN generation in the aorta rings, % of control activity
[6] = test system: cGMP accumulation in the aortic rings; test: cGMP accumulation in aortic rings; assay type: cell-based, New Zealand white rabbits; settings: for effect on increase in cGMP produced by GTN: 1 μM for 1 minute
mtALDH = biological target: T3, mtALDH (Oryctolagus cuniculus, UniProt G1SUY2); test: mtALDH activity in partially purified preparations of GTN tolerant aortic rings; assay type: biochemical, rabbit
T3 construct: from tissue; host or cells: thoracic aorta rings of New Zealand white rabbits, made GTN tolerant; partially purified preparation
T3 sequence (G1SUY2 1-521): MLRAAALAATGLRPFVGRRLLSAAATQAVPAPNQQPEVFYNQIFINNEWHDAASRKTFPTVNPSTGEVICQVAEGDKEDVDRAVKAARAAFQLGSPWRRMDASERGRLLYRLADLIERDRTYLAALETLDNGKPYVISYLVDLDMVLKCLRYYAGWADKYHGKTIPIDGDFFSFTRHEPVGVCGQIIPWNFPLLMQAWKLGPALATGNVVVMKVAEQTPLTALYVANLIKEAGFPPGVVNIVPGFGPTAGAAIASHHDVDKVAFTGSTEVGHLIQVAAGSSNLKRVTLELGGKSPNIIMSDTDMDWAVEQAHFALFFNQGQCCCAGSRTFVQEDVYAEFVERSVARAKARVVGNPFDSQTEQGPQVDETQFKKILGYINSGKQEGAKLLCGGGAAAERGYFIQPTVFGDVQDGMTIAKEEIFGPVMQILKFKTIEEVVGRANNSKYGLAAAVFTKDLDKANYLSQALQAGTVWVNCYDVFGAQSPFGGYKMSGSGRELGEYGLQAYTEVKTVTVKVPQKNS

[7] = test system: rabbit thoracic aorta rings; test: tissue or blood; assay type: cell-based, New Zealand white rabbits; settings: for EC50: Oryctolagus cuniculus, read-out: EC50 for GTN relaxation
[8] = test system: anesthetized rabbits (arterial blood pressure); test: Systemic hypotensive effects of GTN infusion in anesthetized rabbits; assay type: in vivo, New Zealand white rabbits; settings: for effect on SNP or adenosine mediated hypotension: inhibitor (~5 mM) infused intravenously 20 minutes prior; for effect on hypotensive effects of GTN: inhibitor (~5 mM) infused intravenously 20 minutes prior to GTN
[9] = 1 mM, 20 minutes before 1 μM GTN, 5 minutes 37° C.

Molecule: O=C(O)CCCC[C@@H](S)CCS (racemic) [DHLA, dihydrolipoic acid]
- clinical outcome (patient; iv, 50 mg/kg): reverses tolerance and maintains mtALDH activity
- activation of mtALDH to cause conversion of GTN to 1,2-GDN (FIG. 1) [1]: best activators

Molecule: O[C@H](CS)[C@H](O)CS (racemic) [DTT, dithiothreitol]
- activation of mtALDH to cause conversion of GTN to 1,2-GDN (FIG. 1) [1]: best activators
- dependence of 1,2-GDN formation by purified enzyme on added dithiol ([2]; purified enzyme): could only catalyze 1,2-GDN formation when dithiol
- restoration of catalytic activity lost upon removal of DTT by dialysis [2]: fully restored

Molecule: O=C(O)CCCC[C@@H]1CCSS1 (racemic) [lipoic acid]
- dependence of 1,2-GDN formation by purified enzyme on added dithiol ([2]; purified enzyme): could only catalyze 1,2-GDN formation when dithiol

Molecule: O=NOC(CO)CO [2 glycerol mononitrite, 2-glycerol mononitrite]
- angiography the following year (patient): no progression of atherosclerosis
- clinical outcome (patient): relief of symptoms

Molecule: O=[N+]([O-])OCC(CO[N+](=O)[O-])O[N+](=O)[O-] [GTN, glyceryl trinitrate]
- blood pressure after drop (patient): 100 mm Hg
- solubility in glycerol [3]: sparingly soluble
- 1,2-GDN generation from GTN ([4]; mitochondria isolated from RAW 264.7 cells, 1 mM NADH/NADPH): 0.29 nmol/h/mg
- 1,2-GDN generation from GTN, residual activity ([4]; mitochondria-free supernatant): no residual activity
- decrease of reductase activity as measured by 1,2-GDN formation ([5]; GTN-tolerant rings compared to control): 60.4%
- cGMP accumulation from GTN treatment ([6]; GTN tolerant rings): abolished
- activity of mtALDH (mtALDH): inhibited
- 1,3-GDN formation from GTN ([2]; purified enzyme): below detection limits
- rates of 1,2-GDN formation versus GTN concentration ([2]; purified enzyme, GTN 0.1 to 10 μM): linear
- product ratio of 1,2-GDN/NOx (nitrite plus nitrate) ([2]; purified enzyme, n=3): 0.73±0.05
- product ratio of 1,2-GDN/nitrite ([2]; purified enzyme, n=3): 0.83±0.14
- EC50 ([7]; 0.5 h): 3760 ± 2050 nM
- EC50 [7]: 22.6 ± 9.2 nM

Molecule: O=[N+]([O-])O[C@@H]1CO[C@H]2[C@@H]1OC[C@@H]2O [Imdur]
- cross-tolerance with nitroglycerin (patient): no cross-tolerance

Molecule: N[C@@H](CCC(=O)N[C@@H](CSN=O)C(=O)NCC(=O)O)C(=O)O [S-nitrosoglutathione]
- clinical outcome (patient): improvement of dyspnea and relief of angina; also recorded: relief of symptoms

Molecule: O=C(O)CCP(CCC(=O)O)CCC(=O)O [TCEP, tris(2-carboxyethylphosphine)]
- clinical outcome (patient): tolerance is reversed and angina resolves
- activation of mtALDH to cause conversion of GTN to 1,2-GDN (FIG. 1) ([1]; 1 mM GTN, excess mtALDH, 37° C. 10-30 minutes, DTT 1 mM, DHLA 0.5 and 0.1 mM, TCEP 1 mM): best activators

Molecule: NCCCNCCSP(=O)(O)O [amifostine]
- clinical outcome (patient): resolution rectal pain
- improvement in FEV 1 (patient): 12%

Molecule: CCCCCO[N+](=O)[O-] [amyl nitrate]
- clinical outcome (patient): improvement in dyspnea and symptoms of fatigue

Molecule: CCN(CC)C(=S)SSC(=S)N(CC)CC [antibuse]
- clinical outcome (patient; po): without headache or symptomatic hypotension

Molecule: OC(O)C(Cl)(Cl)Cl [chloral hydrate]
- clinical outcome (patient): resolution of symptoms; also recorded: without a decline in blood pressure; also recorded: without a fall in blood pressure; also recorded: improvement in wheezing and shortness of breath
- clinical outcome (patient; iv): left ventricular function is largely preserved
- clinical outcome (patient; po): blood pressure is restored
- systolic blood pressure after rise (patient; po): 160 mm Hg
- activity at 1000 µM [5, 9]: 27.6%
- effect on increase in cGMP produced by GTN [6]: completely blocked
- increase of GTN EC50 by inhibitor/competitive substrate [7]: 8.9 fold
- effect on SNP or adenosine mediated hypotension [8]: little or no effect
- effect on hypotensive effects of GTN [8]: significantly attenuated

Molecule: N#CN [cyanamide]
- activity at 1000 µM [5, 9]: 56.9%
- reduction of the cGMP increase produced by GTN ([6]; 100 μM-10 nM): 46%
- increase of GTN EC50 by inhibitor/competitive substrate [7]: 4.9 fold
- effect on SNP or adenosine mediated hypotension [8]: little or no effect
- effect on hypotensive effects of GTN [8]: significantly attenuated

Molecule: CCON=O [ethyl nitrite]
- clinical outcome (patient; iv): Anginal symptoms resolve
- systolic blood pressure after fall (patient; iv): 120 mm Hg

Molecule: Cc1cnc(C(=O)NCCc2ccc(S(=O)(=O)NC(=O)NC3CCCCC3)cc2)cn1 [glipizide]
- clinical outcome (patient; iv): preservation of left ventricular function

Molecule: N[C@@H](CCC(=O)N[C@@H](CS)C(=O)NCC(=O)O)C(=O)O [glutathione]
- restoration of catalytic activity lost upon removal of DTT by dialysis [2]: not

Molecule: O=CC[N+](=O)[O-] [nitroacetaldehyde]
- clinical outcome (patient; 0.1 mg/kg): relief of dyspnea

Molecule: [Cl-].[O-][N+](=S)CCCC[P+](c1ccccc1)(c1ccccc1)c1ccccc1 [thionitrobutyltriphenylphosphonium chloride]
- clinical outcome (patient; iv, 15 mg/kg): relief of symptoms and enhanced sensitivity to nitroglycerin

Molecule: acetaldehyde
- clinical outcome (patient; iv): normalizing blood pressure
- 1,2-GDN generation in the aorta rings, % of control activity [5, 9]: 52.5%
- effect on increase in cGMP produced by GTN [6]: completely blocked
- increase of GTN EC50 by inhibitor/competitive substrate [7]: 4.4 fold

Molecule: nitric oxide [NO solutions]
- effect of preincubation with the mtALDH inhibitors on relaxation induced by this vasodilator [7]: did not attenuate relaxation
